Assay results taken from US6943017B2, “Method of producing antihypercholesterolemic agents” (Wisconsin Alumni Research Foundation, priority 1998, dated 2005).

How the values were obtained:
Assay type in all cases: cell-based
fungi = assay: Antifungal activity (general statement); conditions: noted by Applicants, no test described
Source text: Applicants envision that the present invention is also useful for providing antifungal compounds and organisms engineered to express antifungal compounds. Preferably, one would measure the antifungal properties of a compound in the manner of N. Lomovskaya, et al., Microbiology 143:875-883, 1997. Measurement of inhibition of yeast growth can be found in R. Ikeura, et al., J. Antibiotics 41:1148, 1988. The same general methods could be used for all fungi. Both of these references are hereby incorporated by reference.

[1] = system: A. nidulans strains WMH1741 and WMH1742 (WMH1738 transformed with AN26); assay: Lovastatin resistance test: spore suspension streaked on solid AMM plates containing lovastatin; conditions: 37° C.
Protocol: (§1) This strain WMH1738 was transformed to hygromycin B resistance with pWHM1263. Transformant colonies were screened for lovastatin resistance and for the production of new metabolites as described below and two strains WMH1739 and WMH1740 were chosen for further analysis. […] This was analyzed by streaking 10 μl of a spore suspension on solid AMM plates containing lovastatin at 0, 0.1, 0.5, 1, 5, 10, 50 and 100 μg/ml and incubating at 37° C. Strains WMH1739 and WMH1740 were compared to strains WMH1741 and WMH1742 which were derivatives of WMH1738 transformed to hygromycin resistance with AN26. […] The two lovastatin resistant strains were fermented in lovastatin-producing conditions using fermentation method B and extracts were analyzed for lovastatin related metabolites as described below. […] One compound that was common to both comigrated with monacolin J on TLC and HPLC analysis by the methods described below. Semi-preparative HPLC was used to partially purify some of this compound, which was then analyzed by HPLC—MS. It had the same mass and fragmentation pattern as authentic monacolin J. The other compound, found in only one of the strains, comigrated with monacolin L on TLC and HPLC.

[2] = system: A. nidulans strains WMH1739 and WMH1740 (WMH1738 transformed with pWHM1263); assay: as above
Protocol: as §1

| Structure (SMILES) | antifungal activity (fungi) | inhibition of growth ([1]; lovastatin 5 μg/ml on solid AMM plates) | inhibition of growth ([1]; lovastatin 50 μg/ml on solid AMM plates) | inhibition of growth ([2]; strains WMH1739 and WMH1740, lovastatin at 0, 0.1, 0.5, 1, 5, 10, 50 and 100 μg/ml on solid AMM plates, 37° C.) | lovastatin concentration to which strains were significantly resistant ([2]; strains WMH1739 and WMH1740 compared with the host strain, solid media) |
| --- | --- | --- | --- | --- | --- |
| C[C@H]1C=C2C=C[C@H](C)[C@H](CC[C@@H]3C[C@@H](O)CC(=O)O3)[C@H]2[C@@H](O)C1 [monocolin J, monacolin J] | varying degrees of antifungal activity | – | – | – | – |
| C[C@H]1C=C2C=C[C@H](C)[C@H](CC[C@@H]3C[C@@H](O)CC(=O)O3)[C@H]2CC1 [monocolin L, monacolin L] | varying degrees of antifungal activity | – | – | – | – |
| CC[C@H](C)C(=O)O[C@H]1C[C@@H](C)C=C2C=C[C@H](C)[C@H](CC[C@@H]3C[C@@H](O)CC(=O)O3)[C@H]21 [lovastatin] | varying degrees of antifungal activity | slight inhibition | almost complete growth inhibition | no inhibition of growth | up to 100 μg/ml |
| C[C@@H]1CC[C@@H]2[C@@H](CC[C@@H]3C[C@@H](O)CC(=O)O3)[C@@H](C)C=C[C@H]2C1 [dihydromonocolin L, dihydromonacolin L] | varying degrees of antifungal activity | – | – | – | – |
